Source: ChEMBL document CHEMBL3856181, “Cigarette Smoke-Induced Lung Disease Predisposes to More Severe Infection with Nontypeable Haemophilus influenzae: Protective Effects of Andrographolide” (J Nat Prod, 2016)
The source made the active and inactive calls.

Legend:
Assay type in all cases: functional, organism-based
Mus musculus [1] = assay: Antiinflammatory activity in cigarette smoke-predisposed BALB/c mouse model of NTHi-inflammation assessed as reduction in lung inflammation score at 10 mg/kg, ip administered at 1 and 24 hrs post NTHi-challenge by hematoxylin and eosin staining-based method
Mus musculus [2] = assay: Antiinflammatory activity in cigarette smoke-predisposed BALB/c mouse model of NTHi-inflammation assessed as suppression of lung 8-OHdG level at 5 and 10 mg/kg, ip administered post 1 and 24 hrs of NTHi-challenge by ELISA
Mus musculus [3] = assay: Anti-inflammatory activity in cigarette smoke-predisposed BALB/c mouse model of NTHi-inflammation assessed as reduction in macrophage infiltration in BAL fluid at 10 mg/kg, ip administered at 1 and 24 hrs post NTHi-challenge by Wright-staining based differential cell counting method
Mus musculus [4] = assay: Activation of Nrf2 in cigarette smoke-predisposed BALB/c mouse model of NTHi-inflammation assessed as increase in lung GR expression at 5 and 10 mg/kg, ip administered post 1 and 24 hrs of NTHi-challenge by RT-PCR method
Mus musculus [5] = assay: Activation of Nrf2 in cigarette smoke-predisposed BALB/c mouse model of NTHi-inflammation assessed as increase in lung GPx2 expression at 5 and 10 mg/kg, ip administered post 1 and 24 hrs of NTHi-challenge by RT-PCR method
Mus musculus [6] = assay: Activation of Nrf2 in cigarette smoke-predisposed BALB/c mouse model of NTHi-inflammation assessed as increase in lung GCLM expression at 5 and 10 mg/kg, ip administered post 1 and 24 hrs of NTHi-challenge by RT-PCR method
Mus musculus [7] = assay: Anti-inflammatory activity in cigarette smoke-predisposed BALB/c mouse model of NTHi-inflammation assessed as reduction in neutrophil infiltration in BAL fluid at 10 mg/kg, ip administered at 1 and 24 hrs post NTHi-challenge by Wright-staining based differential cell counting method
[8] = Downregulation of MMP8 gene expression in lungs of cigarette smoke-predisposed BALB/c mouse model of NTHi-inflammation at 5 and 10 mg/kg, ip administered post 1 and 24 hrs of NTHi-challenge by RT-PCR method
Mus musculus [9] = assay: Antiinflammatory activity in cigarette smoke-predisposed BALB/c mouse model of NTHi-inflammation assessed as suppression of lung IL-1 beta level at 5 and 10 mg/kg, ip administered post 1 and 24 hrs of NTHi-challenge by ELISA
Mus musculus [10] = assay: Antiinflammatory activity in cigarette smoke-predisposed BALB/c mouse model of NTHi-inflammation assessed as suppression of lung CXCL1/KC level at 5 and 10 mg/kg, ip administered post 1 and 24 hrs of NTHi-challenge by ELISA
Mus musculus [11] = assay: Antiinflammatory activity in cigarette smoke-predisposed BALB/c mouse model of NTHi-inflammation assessed as suppression of lung TNF-alpha level at 5 and 10 mg/kg, ip administered post 1 and 24 hrs of NTHi-challenge by ELISA
[12] = Reduction of Keap1 gene expression in lungs of cigarette smoke-predisposed BALB/c mouse model of NTHi-inflammation at 5 and 10 mg/kg, ip administered post 1 and 24 hrs of NTHi-challenge by RT-PCR method
[13] = Downregulation of MMP9 gene expression in lungs of cigarette smoke-predisposed BALB/c mouse model of NTHi-inflammation at 5 and 10 mg/kg, ip administered post 1 and 24 hrs of NTHi-challenge by RT-PCR method
Mus musculus [14] = assay: Activation of Nrf2 in cigarette smoke-predisposed BALB/c mouse model of NTHi-inflammation assessed as increase in lung NQO1 expression at 5 and 10 mg/kg, ip administered post 1 and 24 hrs of NTHi-challenge by RT-PCR method
Mus musculus [15] = assay: Activation of Nrf2 in cigarette smoke-predisposed BALB/c mouse model of NTHi-inflammation assessed as increase in lung OH-1 expression at 5 and 10 mg/kg, ip administered post 1 and 24 hrs of NTHi-challenge by RT-PCR method
Mus musculus [16] = assay: Induction of Nrf2 nuclear translocation in cigarette smoke-predisposed BALB/c mouse model of NTHi-inflammation assessed as Nrf2 binding to antioxidant response element consensus DNA binding site at 5 and 10 mg/kg, ip administered post 1 and 24 hrs of NTHi-challenge by ELISA

C=C1CC[C@@H]2[C@](C)(CO)[C@H](O)CC[C@@]2(C)[C@@H]1C/C=C1/C(=O)OC[C@H]1O
active: Activity (Mus musculus [1]) | inhibition (Mus musculus [2]) | Activity (Mus musculus [3]) | Activity (Mus musculus [4]) | Activity (Mus musculus [5]) | Activity (Mus musculus [6]) | Activity (Mus musculus [7]) | Activity [8] | inhibition (Mus musculus [9]) | inhibition (Mus musculus [10]) | inhibition (Mus musculus [11]) | Activity [12] | Activity [13] | Activity (Mus musculus [14]) | Activity (Mus musculus [15]) | Activity (Mus musculus [16])
